This passage reports GI50 and IC50 results from US12686673B2 (Blueprint Medicines Corporation, priority 2020, dated 2026).

Holding throughout (assay type): cell-based
For assay [1], the target named is EGFR(D770_N771insSVD) expressing Ba/F3 stable cell line (Homo sapiens, UniProt P00533, DUP768-770, cells depend on it). The experiment in a line: Cellular proliferation (Alamar Blue) assay, EGFR D770_N771insSVD Ba/F3. As to conditions: 72 hr, read-out: D770 IC50. In a few lines: (§1)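 72 hr Ba/F3 viability assay; cells in RPMI/10% FBS, compound dilutions down from 10 μM final, Alamar Blue detection.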
Sequence of EGFR(D770_N771insSVD) expressing Ba/F3 stable cell line (P00533 with tags, fused parts or gaps DUP768-770): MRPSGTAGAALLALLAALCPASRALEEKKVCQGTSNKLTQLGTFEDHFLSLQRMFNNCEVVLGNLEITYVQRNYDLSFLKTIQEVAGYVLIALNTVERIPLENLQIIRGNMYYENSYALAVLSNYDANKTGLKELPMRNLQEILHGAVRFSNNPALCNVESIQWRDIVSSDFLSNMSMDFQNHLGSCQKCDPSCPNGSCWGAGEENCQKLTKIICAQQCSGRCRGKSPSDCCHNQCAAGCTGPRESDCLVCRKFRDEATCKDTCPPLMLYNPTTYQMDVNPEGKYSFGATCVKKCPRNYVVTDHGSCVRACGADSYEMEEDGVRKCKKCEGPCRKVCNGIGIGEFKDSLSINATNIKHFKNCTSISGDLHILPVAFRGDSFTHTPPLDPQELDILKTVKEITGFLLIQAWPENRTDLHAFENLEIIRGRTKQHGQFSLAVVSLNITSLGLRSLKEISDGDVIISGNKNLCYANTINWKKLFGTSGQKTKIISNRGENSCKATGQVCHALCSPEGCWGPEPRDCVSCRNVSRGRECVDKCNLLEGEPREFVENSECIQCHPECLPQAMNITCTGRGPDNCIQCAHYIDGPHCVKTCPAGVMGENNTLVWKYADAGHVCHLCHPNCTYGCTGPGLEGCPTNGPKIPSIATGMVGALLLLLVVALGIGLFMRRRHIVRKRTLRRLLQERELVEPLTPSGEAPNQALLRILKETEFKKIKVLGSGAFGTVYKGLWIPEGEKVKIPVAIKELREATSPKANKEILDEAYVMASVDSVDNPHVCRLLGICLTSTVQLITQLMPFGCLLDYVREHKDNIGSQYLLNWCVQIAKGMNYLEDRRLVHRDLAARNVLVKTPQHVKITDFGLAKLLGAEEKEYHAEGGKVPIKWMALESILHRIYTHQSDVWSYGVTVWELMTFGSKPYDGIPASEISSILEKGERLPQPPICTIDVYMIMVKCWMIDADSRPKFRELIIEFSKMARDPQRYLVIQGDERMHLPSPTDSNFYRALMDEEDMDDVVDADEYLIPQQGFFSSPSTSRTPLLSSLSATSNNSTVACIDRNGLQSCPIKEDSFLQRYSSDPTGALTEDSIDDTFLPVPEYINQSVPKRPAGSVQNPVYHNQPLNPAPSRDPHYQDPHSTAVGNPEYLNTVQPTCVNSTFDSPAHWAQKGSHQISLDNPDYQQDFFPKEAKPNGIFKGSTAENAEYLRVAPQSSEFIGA
(In general: The colour change of resazurin is a common sign of viable cells or microbes.)

Assay [2] concerns the target EGFR (A767_dupASV) expressing Ba/F3 stable cell line (Homo sapiens, UniProt P00533, DUP767-769, cells depend on it). The assay can be described thus: Cellular proliferation (Alamar Blue) assay, EGFR A767_dupASV Ba/F3. The conditions noted are these: 72 hr, read-out: A767 IC50. In a few lines:
as §1

A further assay deals with A431 cells. The assay can be described thus: Cellular proliferation (Alamar Blue) assay, A431.
The target in assay [3] is EGFR (H773insNPH) expressing Ba/F3 stable cell line (Homo sapiens, UniProt P00533, DUP771-773, cells depend on it). The experiment in a line: Cellular proliferation (Alamar Blue) assay, EGFR H773insNPH Ba/F3. The conditions noted are these: 72 hr, read-out: NPH IC50. How it is done: • 1. EGFR(D770_N771insSVD) expressing Ba/F3 stable cell line • 2. EGFR (A767_dupASV) expressing Ba/F3 stable cell line • 3. A431 cells • 4. EGFR (H773insNPH) expressing Ba/F3 stable cell line • 5. HER2 (A775_G776insYVMA) expressing Ba/F3 stable cell line Assay Procedure: • 1. Seed cells at 5000 for A431 and 15,000 cells for Ba/F3 in 100 μL/well in complete media (for A431: DMEM with […] and for Ba/F3 cells: RPMI with 10% FBS) in 96-well tissue culture plate. Leave outer wells without cells for background measurements. Incubate at 37 degree Celsius in […] humidified incubator for 16-18 hours. • 2. Add 0.025 ml of 5× concentration compound dilution or DMSO control. Final compound concentration range is 10-0.0005 μM prepared in 3-fold serial dilutions. Incubate for 72 hr at 37 degree Celsius in […] humidified incubator. • 3. Add 0.0125 ml Alamar Blue™ reagent to each well with multi-channel pipette and tap gently on each side of the plate to mix. Incubate for 3 hours at 37 degree Celsius in 5% CO2 humidified incubator. • 4. […] Data analysis was performed using XLfit 5.5.0.5.
Sequence of EGFR (H773insNPH) expressing Ba/F3 stable cell line (P00533 with tags, fused parts or gaps DUP771-773): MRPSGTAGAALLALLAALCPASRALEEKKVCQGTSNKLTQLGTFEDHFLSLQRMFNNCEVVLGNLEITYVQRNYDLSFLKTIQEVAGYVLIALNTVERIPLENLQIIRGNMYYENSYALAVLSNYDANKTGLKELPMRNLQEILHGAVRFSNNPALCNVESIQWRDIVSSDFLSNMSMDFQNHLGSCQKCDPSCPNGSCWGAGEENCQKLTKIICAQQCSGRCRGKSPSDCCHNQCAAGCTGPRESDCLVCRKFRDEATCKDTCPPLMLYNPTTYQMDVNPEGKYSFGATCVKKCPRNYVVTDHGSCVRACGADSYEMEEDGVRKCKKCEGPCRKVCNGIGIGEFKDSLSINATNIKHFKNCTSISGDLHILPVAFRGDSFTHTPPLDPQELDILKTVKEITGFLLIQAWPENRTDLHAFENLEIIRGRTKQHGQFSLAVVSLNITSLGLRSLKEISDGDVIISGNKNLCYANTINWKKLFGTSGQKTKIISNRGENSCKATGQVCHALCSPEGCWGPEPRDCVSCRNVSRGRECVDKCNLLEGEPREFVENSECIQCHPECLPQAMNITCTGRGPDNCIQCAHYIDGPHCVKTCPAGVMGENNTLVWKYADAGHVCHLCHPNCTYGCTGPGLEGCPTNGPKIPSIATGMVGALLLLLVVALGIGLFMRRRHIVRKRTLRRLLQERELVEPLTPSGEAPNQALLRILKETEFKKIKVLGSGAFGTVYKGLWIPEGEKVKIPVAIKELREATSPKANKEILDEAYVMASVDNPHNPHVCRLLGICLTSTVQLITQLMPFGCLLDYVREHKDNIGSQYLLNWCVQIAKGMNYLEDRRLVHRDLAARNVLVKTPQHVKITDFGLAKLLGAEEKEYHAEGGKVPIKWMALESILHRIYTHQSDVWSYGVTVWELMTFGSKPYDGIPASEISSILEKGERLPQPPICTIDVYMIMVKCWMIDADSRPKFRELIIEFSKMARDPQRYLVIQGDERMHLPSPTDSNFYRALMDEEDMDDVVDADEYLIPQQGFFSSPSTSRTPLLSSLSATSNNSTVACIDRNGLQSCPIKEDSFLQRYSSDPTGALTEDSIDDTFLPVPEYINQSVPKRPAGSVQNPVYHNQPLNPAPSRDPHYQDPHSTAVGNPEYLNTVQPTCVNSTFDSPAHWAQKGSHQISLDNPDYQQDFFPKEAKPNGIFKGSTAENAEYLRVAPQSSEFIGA

Assay [4] addresses HER2 (A775_G776insYVMA) expressing Ba/F3 stable cell line (Homo sapiens, UniProt P04626, DUP772-775, cells depend on it). The assay can be described thus: Cellular proliferation (Alamar Blue) assay, HER2 A775_G776insYVMA Ba/F3. The conditions noted are these: 72 hr, read-out: YVMA IC50. In a few lines:
as §1

Where [5] appears, read: Homo sapiens, A-431; A431 cells, Alamar Blue, 72 hr; read-out: A431 IC50.
The mark [6] stands for this setting: Homo sapiens, A-431; A431 cells, 72 hr, Alamar Blue; read-out: A431 IC50.

Where a name gives a salt, the structure may show the parent alone. Read-outs that look alike come from different tables or passages of the source.

In general, IC50 refers to the concentration at which inhibition is half-maximal.

Sequence of EGFR (A767_dupASV) expressing Ba/F3 stable cell line (P00533 with tags, fused parts or gaps DUP767-769): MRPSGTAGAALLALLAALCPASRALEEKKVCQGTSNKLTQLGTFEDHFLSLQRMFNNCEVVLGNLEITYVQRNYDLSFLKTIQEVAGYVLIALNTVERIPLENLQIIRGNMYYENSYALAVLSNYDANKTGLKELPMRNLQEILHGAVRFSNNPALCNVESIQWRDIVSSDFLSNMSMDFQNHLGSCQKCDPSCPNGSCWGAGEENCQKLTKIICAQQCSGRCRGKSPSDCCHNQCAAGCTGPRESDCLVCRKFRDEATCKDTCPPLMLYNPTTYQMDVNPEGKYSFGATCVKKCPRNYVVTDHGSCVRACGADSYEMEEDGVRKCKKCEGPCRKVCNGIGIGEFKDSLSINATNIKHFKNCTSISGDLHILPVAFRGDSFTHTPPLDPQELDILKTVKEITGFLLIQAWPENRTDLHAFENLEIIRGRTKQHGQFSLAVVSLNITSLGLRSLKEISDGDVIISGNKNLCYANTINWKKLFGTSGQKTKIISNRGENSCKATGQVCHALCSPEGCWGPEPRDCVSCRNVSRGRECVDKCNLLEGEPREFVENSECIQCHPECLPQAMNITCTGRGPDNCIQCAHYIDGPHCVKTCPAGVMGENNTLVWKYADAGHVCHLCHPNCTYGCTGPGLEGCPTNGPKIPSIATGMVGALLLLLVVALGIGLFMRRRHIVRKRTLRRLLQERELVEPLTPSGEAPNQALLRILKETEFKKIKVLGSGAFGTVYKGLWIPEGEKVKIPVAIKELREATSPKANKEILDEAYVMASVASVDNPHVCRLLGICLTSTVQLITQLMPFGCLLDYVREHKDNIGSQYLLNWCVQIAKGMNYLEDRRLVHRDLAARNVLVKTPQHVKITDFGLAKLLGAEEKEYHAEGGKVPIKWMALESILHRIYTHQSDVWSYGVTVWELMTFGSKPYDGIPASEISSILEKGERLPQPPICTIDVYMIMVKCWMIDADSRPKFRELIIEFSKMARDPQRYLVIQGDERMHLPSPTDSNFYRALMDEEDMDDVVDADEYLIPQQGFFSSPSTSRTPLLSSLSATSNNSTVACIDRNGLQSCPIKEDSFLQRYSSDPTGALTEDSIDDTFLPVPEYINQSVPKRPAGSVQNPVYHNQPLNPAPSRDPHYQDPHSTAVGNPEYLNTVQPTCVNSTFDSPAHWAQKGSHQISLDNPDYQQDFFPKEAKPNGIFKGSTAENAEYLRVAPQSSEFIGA
Sequence of HER2 (A775_G776insYVMA) expressing Ba/F3 stable cell line (P04626 with tags, fused parts or gaps DUP772-775): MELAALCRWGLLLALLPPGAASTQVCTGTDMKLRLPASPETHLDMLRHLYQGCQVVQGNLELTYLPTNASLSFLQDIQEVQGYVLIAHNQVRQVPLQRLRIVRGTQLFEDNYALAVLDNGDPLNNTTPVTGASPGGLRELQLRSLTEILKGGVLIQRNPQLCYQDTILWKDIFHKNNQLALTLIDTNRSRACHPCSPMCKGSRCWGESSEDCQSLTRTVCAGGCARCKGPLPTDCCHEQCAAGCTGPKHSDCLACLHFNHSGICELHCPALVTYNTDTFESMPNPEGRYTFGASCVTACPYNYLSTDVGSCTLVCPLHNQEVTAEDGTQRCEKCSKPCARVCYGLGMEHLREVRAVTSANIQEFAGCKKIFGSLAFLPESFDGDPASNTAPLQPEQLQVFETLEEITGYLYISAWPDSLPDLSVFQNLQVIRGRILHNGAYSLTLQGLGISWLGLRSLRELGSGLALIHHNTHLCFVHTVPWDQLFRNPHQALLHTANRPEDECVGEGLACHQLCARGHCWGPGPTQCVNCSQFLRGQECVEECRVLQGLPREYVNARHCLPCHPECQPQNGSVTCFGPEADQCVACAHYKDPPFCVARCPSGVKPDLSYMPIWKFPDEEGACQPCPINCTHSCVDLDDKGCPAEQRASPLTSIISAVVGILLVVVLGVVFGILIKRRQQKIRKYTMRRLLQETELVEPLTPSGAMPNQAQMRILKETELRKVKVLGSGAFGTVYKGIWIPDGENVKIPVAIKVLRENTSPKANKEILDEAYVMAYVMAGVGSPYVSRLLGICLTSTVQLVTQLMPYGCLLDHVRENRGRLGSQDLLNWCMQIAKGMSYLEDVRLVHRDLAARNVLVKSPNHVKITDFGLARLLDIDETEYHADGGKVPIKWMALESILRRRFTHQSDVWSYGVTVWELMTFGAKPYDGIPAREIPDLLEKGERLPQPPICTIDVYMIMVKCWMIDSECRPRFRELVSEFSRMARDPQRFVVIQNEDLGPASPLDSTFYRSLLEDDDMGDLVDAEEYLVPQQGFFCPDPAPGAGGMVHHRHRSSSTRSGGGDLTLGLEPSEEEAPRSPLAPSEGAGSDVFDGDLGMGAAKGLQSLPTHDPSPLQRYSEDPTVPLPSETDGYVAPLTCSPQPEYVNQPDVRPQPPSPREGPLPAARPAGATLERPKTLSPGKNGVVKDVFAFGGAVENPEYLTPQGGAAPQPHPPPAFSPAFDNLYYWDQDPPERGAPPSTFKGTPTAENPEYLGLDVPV

Regarding `C=CC(=O)Nc1cccc(Nc2nc(Nc3cnn(C)c3)ncc2-c2cccc(F)c2)c1` [Compound 115, N-(3-((5-(3-fluorophenyl)-2-((1-methyl-1H-pyrazol-4-yl)amino)pyrimidin-4-yl)amino)phenyl)acrylamide trifluoroacetate], the GI50 in assay [1] was 16 nM; in assay [2], 39 nM; in assay [3], 30 nM; in assay [4], 25 nM. In addition, the IC50 in the assay on A431 cells (setting [5]) was determined as 100 nM.
Turning to `C=CC(=O)Nc1cccc(Nc2nc(Nc3cnn(C)c3)ncc2-c2ccc(C(F)(F)F)cc2)c1` [Compound 111, N-(3-((2-((1-methyl-1H-pyrazol-4-yl)amino)-5-(4-(trifluoromethyl)phenyl)pyrimidin-4-yl)amino)phenyl)acrylamide], the GI50 in assay [1] was 48 nM; in assay [2], 41 nM; in assay [3], 103 nM; in assay [4], 138 nM. Also, in the assay with A431 cells (setting [5]), the IC50 turned out to be 27 nM.
As for `[2H]C([2H])([2H])n1cc(Nc2ncc(-c3ccc(C(F)(F)F)cc3)c(Nc3cc(NC(=O)C=C)ccc3F)n2)cn1` [Compound 242, N-{4-fluoro-3-[(2-{[1-(^2H3)methyl-1H-pyrazol-4-yl]amino}-5-[4-(trifluoromethyl)phenyl]pyrimidin-4-yl)amino]phenyl}prop-2-enamide], the GI50 stood at 98 nM in assay [1], 101 nM in assay [2], 101 nM in assay [3] and 133 nM in assay [4]. The IC50 in the assay on A431 cells (setting [6]) stood at 129 nM.
For `C=CC(=O)Nc1ccc(F)c(Nc2nc(Nc3cnn(C)c3)ncc2-c2ccc(C(F)(F)F)nc2)c1` [Compound 57, N-(4-fluoro-3-((2-((1-methyl-1H-pyrazol-4-yl)amino)-5-(6-(trifluoromethyl)pyridin-3-yl)pyrimidin-4-yl)amino)phenyl)acrylamide], the GI50 was found to be 44 nM in assay [1], 71 nM in assay [2], 82 nM in assay [3] and 177 nM in assay [4]. Also, the half-inhibitory concentration (IC50) in the assay with A431 cells (setting [5]) came out at 1940 nM.
For `C=CC(=O)Nc1ccc(F)c(Nc2nc(Nc3cnn(C)c3)ncc2-c2cncc(OC)c2)c1` [Compound 141, N-(4-fluoro-3-((5-(5-methoxypyridin-3-yl)-2-((1-methyl-1H-pyrazol-4-yl)amino)pyrimidin-4-yl)amino)phenyl)acrylamide] the same measures were 101 nM, 100 nM, 49 nM, 201 nM and 141 nM.
Take `C=CC(=O)Nc1ccc(F)c(Nc2nc(Nc3cnn(C)c3)ncc2-c2ccnc(F)c2)c1` [Compound 82, N-(4-fluoro-3-((5-(2-fluoropyridin-4-yl)-2-((1-methyl-1H-pyrazol-4-yl)amino)pyrimidin-4-yl)amino)phenyl)acrylamide]: the GI50 was 38 nM in assay [1], 103 nM in assay [2], 57 nM in assay [3] and 226 nM in assay [4]. The IC50 in the assay with A431 cells (setting [5]) came out at 590 nM.
As to `C=CC(=O)Nc1ccc(F)c(Nc2nc(Nc3cnn(C)c3)ncc2-c2cncc(OC(F)F)c2)c1` [Compound 95, N-(3-((5-(5-(difluoromethoxy)pyridin-3-yl)-2-((1-methyl-1H-pyrazol-4-yl)amino)pyrimidin-4-yl)amino)-4-fluorophenyl)acrylamide], the GI50 in assay [1] was 38 nM; in assay [2], 27 nM; in assay [3], 45 nM; in assay [4], 101 nM. For the same molecule, the IC50 in the assay with A431 cells (setting [5]) is 102 nM.
Turning to `C=CC(=O)Nc1cccc(Oc2nc(Nc3cnn(C)c3)ncc2-c2ccc(C(F)F)nc2)c1` [Compound 187, N-(3-((5-(6-(difluoromethyl)pyridin-3-yl)-2-((1-methyl-1H-pyrazol-4-yl)amino)pyrimidin-4-yl)oxy)phenyl)acrylamide], the GI50 is 40 nM in assay [1], 61 nM in assay [2], 99 nM in assay [3] and 226 nM in assay [4]. The IC50 in the assay with A431 cells (setting [5]) stood at 281 nM.
For `C=CC(=O)Nc1ccc(F)c(Nc2nc(Nc3cnn(C)c3)ncc2-c2ccc(Br)cc2)c1` [Compound 75, N-(3-((5-(4-bromophenyl)-2-((1-methyl-1H-pyrazol-4-yl)amino)pyrimidin-4-yl)amino)-4-fluorophenyl)acrylamide trifluoroacetate] the same measures were 35 nM, 74 nM, 43 nM, 100 nM and 37 nM.
`C=CC(=O)Nc1cccc(Oc2nc(Nc3cnn(C)c3)ncc2-c2ccc(OC(F)F)nc2)c1` [Compound 188, N-(3-((5-(6-(difluoromethoxy)pyridin-3-yl)-2-((1-methyl-1H-pyrazol-4-yl)amino)pyrimidin-4-yl)oxy)phenyl)acrylamide]: the GI50 came out at 108 nM in assay [1], 118 nM in assay [2], 300 nM in assay [3] and 269 nM in assay [4]. In addition, the IC50 with A431 cells (setting [5]) is 216 nM.
Consider `C=CC(=O)Nc1ccc(F)c(Nc2nc(Nc3cnn(C)c3)ncc2-c2ccnc(OC)c2)c1` [Compound 68, N-(4-fluoro-3-((5-(2-methoxypyridin-4-yl)-2-((1-methyl-1H-pyrazol-4-yl)amino)pyrimidin-4-yl)amino)phenyl)acrylamide], for which the GI50 worked out at 101 nM in assay [1], 108 nM in assay [2], 107 nM in assay [3] and 128 nM in assay [4]. In the assay on A431 cells (setting [5]), the IC50 was found to be 223 nM.
For `C=CC(=O)Nc1ccc(F)c(Nc2nc(Nc3cnn(C)c3)ncc2-c2ccnc(Cl)c2)c1` [Compound 117, N-(3-((5-(2-chloropyridin-4-yl)-2-((1-methyl-1H-pyrazol-4-yl)amino)pyrimidin-4-yl)amino)-4-fluorophenyl)acrylamide], in that order: 86 nM, 57 nM, 107 nM, 160 nM and 85 nM.
In the case of `C=CC(=O)Nc1cccc(Oc2nc(Nc3cn(C)nc3Cl)ncc2-c2ccc(C(F)(F)F)cc2)c1` [Compound 233, N-[3-({2-[(3-chloro-1-methyl-1H-pyrazol-4-yl)amino]-5-[4-(trifluoromethyl)phenyl]pyrimidin-4-yl}oxy)phenyl] prop-2-enamide], the GI50 in assay [1] is 187 nM; in assay [2] it was 428 nM; in assay [3], 385 nM; in assay [4] it was 537 nM. The IC50 in the assay on A431 cells (setting [6]) is 262 nM.
For the molecule `C=CC(=O)Nc1cccc(Oc2nc(Nc3cnn(C)c3)ncc2-c2ccc(Cl)nc2)c1` [Compound 185, N-(3-((5-(6-chloropyridin-3-yl)-2-((1-methyl-1H-pyrazol-4-yl)amino)pyrimidin-4-yl)oxy)phenyl)acrylamide], the GI50 came to 40 nM in assay [1], 37 nM in assay [2], 97 nM in assay [3] and 113 nM in assay [4]. Further, the IC50 in the assay with A431 cells (setting [5]) is 522 nM.
With `C=CC(=O)Nc1ccc(F)c(Nc2nc(Nc3cnn(C4CCN(C)CC4)c3)ncc2Cl)c1` [Compound 14, N-(3-((5-chloro-2-((1-(1-methylpiperidin-4-yl)-1H-pyrazol-4-yl)amino)pyrimidin-4-yl)amino)-4-fluorophenyl)acrylamide], the GI50 in assay [1] was found to be 320 nM; in assay [2], 170 nM; in assay [3] it was 192 nM; in assay [4] it was 756 nM. Moreover, the IC50 with A431 cells (setting [5]) is 1830 nM.
As to `C=CC(=O)Nc1ccc(F)c(Nc2nc(Nc3cnn(C)c3)ncc2-c2cccc(C(F)(F)F)c2)c1` [Compound 89, N-[4-fluoro-3-({2-[(1-methyl-1H-pyrazol-4-yl)amino]-5-[3-(trifluoromethyl)phenyl]pyrimidin-4-yl}amino)phenyl]prop-2-enamide], the GI50 in assay [1] came out at 101 nM; in assay [2] it was 106 nM; in assay [3], 58 nM; in assay [4], 665 nM. Besides, the IC50 in the assay with A431 cells (setting [5]) was determined as 84 nM.
As for `C=CC(=O)Nc1ccc(F)c(Nc2nc(Nc3cnn(CCN(C)C)c3)ncc2-c2ccc(Br)cc2)c1` [Compound 203, N-(3-((5-(4-bromophenyl)-2-((1-(2-(dimethylamino)ethyl)-1H-pyrazol-4-yl)amino)pyrimidin-4-yl)amino)-4-fluorophenyl)acrylamide], the GI50 in assay [1] turned out to be 69 nM; in assay [2] it was 100 nM; in assay [3], 107 nM; in assay [4], 110 nM. Besides, the IC50 in the assay with A431 cells (setting [6]) worked out at 51 nM.
